Laboratory results published in patent publication US8460669B2, “Compositions and methods for identifying response targets and treating flavivirus infection responses” (Academia Sinica, priority 2005, dated 2013).

T1: DC-SIGN (Homo sapiens, UniProt Q9NNX6)
T1 construct: The extracellular domains of lectin receptors, TREMs and TLTs were cloned by the reverse-transcriptase polymerase chain reaction (RT-PCR); made in house; host or cells: 293-F (FreeStyle 293) cells
T1 sequence (Q9NNX6 59-404 limits assumed): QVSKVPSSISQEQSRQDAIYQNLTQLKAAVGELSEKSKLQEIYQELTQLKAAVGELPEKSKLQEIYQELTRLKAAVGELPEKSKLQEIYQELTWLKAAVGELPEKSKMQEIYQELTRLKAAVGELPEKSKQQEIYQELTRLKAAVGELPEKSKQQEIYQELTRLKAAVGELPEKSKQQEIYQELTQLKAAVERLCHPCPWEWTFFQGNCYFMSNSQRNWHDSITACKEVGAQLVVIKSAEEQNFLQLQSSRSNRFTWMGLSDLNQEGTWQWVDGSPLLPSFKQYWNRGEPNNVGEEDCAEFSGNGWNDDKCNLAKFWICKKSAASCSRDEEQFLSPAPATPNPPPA

T2: MMR.Fc (Homo sapiens, UniProt P22897)
T2 construct: The extracellular domains of lectin receptors, TREMs and TLTs were cloned by the reverse-transcriptase polymerase chain reaction (RT-PCR); made in house; host or cells: 293-F (FreeStyle 293) cells
T2 sequence (P22897 19-1389 limits assumed): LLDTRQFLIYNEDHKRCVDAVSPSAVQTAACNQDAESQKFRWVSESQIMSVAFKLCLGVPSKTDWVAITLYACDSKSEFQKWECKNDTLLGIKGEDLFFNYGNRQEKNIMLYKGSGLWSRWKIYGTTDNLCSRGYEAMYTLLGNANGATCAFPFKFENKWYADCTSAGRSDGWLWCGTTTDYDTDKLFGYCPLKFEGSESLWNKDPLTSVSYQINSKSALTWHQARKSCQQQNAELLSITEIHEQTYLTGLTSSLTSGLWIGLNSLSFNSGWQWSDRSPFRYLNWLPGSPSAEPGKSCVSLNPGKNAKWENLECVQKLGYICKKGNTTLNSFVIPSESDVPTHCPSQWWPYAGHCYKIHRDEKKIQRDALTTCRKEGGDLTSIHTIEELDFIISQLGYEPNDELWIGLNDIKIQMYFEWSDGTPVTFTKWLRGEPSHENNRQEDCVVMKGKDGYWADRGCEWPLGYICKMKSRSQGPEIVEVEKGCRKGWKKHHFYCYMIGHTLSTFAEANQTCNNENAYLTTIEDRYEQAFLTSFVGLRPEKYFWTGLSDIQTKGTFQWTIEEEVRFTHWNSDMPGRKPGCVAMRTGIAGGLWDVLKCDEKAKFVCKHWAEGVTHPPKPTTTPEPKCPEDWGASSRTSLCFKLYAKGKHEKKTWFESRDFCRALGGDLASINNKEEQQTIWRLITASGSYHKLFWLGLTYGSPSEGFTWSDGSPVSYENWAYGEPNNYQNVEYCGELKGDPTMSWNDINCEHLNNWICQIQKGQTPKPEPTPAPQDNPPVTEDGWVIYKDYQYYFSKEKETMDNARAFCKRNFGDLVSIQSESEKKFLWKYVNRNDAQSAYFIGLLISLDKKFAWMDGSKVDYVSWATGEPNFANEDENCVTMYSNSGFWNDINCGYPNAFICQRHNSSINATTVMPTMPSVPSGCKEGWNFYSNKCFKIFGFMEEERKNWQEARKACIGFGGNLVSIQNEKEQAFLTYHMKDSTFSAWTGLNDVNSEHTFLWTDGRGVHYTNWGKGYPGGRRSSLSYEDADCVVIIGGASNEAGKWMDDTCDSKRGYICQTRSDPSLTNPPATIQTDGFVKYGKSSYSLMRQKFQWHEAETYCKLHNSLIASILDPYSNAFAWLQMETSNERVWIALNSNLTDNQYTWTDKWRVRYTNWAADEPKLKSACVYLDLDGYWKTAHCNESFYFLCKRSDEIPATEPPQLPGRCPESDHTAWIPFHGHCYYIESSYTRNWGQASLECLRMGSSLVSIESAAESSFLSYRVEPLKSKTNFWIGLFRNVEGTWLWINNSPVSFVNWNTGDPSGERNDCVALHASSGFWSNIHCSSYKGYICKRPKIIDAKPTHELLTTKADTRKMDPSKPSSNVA

T3: DC-SIGN (Homo sapiens, UniProt Q9NNX6)
T3 construct: expressed in transfected cells; host or cells: 293T cells
T3 sequence (Q9NNX6 1-404): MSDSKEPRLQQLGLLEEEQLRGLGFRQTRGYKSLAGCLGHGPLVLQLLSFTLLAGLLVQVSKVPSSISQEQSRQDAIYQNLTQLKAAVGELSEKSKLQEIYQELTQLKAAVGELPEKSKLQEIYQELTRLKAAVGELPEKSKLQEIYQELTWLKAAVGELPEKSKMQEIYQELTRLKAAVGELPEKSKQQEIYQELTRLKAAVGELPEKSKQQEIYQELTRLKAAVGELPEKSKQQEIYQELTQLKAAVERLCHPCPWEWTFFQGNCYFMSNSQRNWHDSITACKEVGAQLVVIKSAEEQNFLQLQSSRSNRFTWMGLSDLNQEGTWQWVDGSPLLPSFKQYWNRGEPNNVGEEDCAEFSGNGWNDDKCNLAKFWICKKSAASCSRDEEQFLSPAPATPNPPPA


How the values were obtained:
Langerin = target: T4, Langerin (Homo sapiens, UniProt Q9UJ71); assay: Sugar competition EIA, Fc.Langerin binding to GLPS-F3; settings: sugar 1 mg/ml
T4 construct: The extracellular domains of lectin receptors, TREMs and TLTs were cloned by the reverse-transcriptase polymerase chain reaction (RT-PCR); made in house; host or cells: 293-F (FreeStyle 293) cells
Experimental: (§1) The interaction between GLPS-F3 and receptor.Fc was then tested. Unbiotinylated GLPS-F3 was immobilized at 100 ng/well as described above, and 100 μL receptor.Fc fusion protein (1 μg/ml in 2 mM MgCl2/2 mM CaCl2/1% BSA/TBST) was added into each well and incubated for 1 hour at room temperature. After washing with TBST, wells were incubated with peroxidase-conjugated goat anti-human IgG Ab (1:5000 dilution, Jackson ImmunoResearch Laboratories) in blocking buffer at room temperature for 30 min. Wells were incubated with 100 μL TMB substrate for 15 min after TBST washing and read at 450 nm in a Fusion plate reader (Perkin Elmer). The results were normalized with respect to Fc.Dectin-1 binding (Dectin-1 is a known lectin receptor that binds to β-1,3-glucan which is the backbone found in GLPS-F3). FIG. 6B depicts in graphical form the affinity of each receptor for GLPS-F3 relative to Dectin-1. […] There was also weaker but positive GLPS-F3 binding ability (25-50% binding intensity compared to Fc.dectin-1) found in Fc.NKG2D, Fc.MINCLE, Fc.mKCR, DCAL1.Fc, DEC205.Fc, Endo180.Fc and NKp30(NCR3).Fc.
(§2) To understand the interaction of GLPS-F3 with specific innate immunity receptors, the polysaccharides mannan and β-glucan and the monosaccharides D-mannose (Man), D-glucose (Glc), N-acetyl-glucosamine (GlcNAc), D-galactose (Gal), N-acetyl-galactosamine (GalNAc), L-fucose (Fuc) and sialic acid, were used in a competition assay. […] The assays were carried out as in Example 9, with the addition of 1 mg/ml of each polysaccharide or monosaccharide.

DC-SIGN [1] = target: T1, DC-SIGN; assay: Sugar competition EIA, Fc.DC-SIGN binding to GLPS-F3; settings: sugar 1 mg/ml
Experimental: as §1, §2

MMR.Fc = target: T2, MMR.Fc; assay: Sugar competition EIA, MMR.Fc binding to GLPS-F3; settings: sugar 1 mg/ml
Experimental: as §1, §2

TLR4.Fc = target: T5, TLR4.Fc (Homo sapiens, UniProt O00206); assay: Sugar competition EIA, TLR4.Fc binding to GLPS-F3; settings: sugar 1 mg/ml
T5 construct: The extracellular domains of several innate immunity receptors from immune cells were cloned by reverse-transcription polymerase chain reaction (RT-PCR); made in house; host or cells: 293-F (FreeStyle 293) cells
Experimental: as §1, §2

DC-SIGN [2] = target: T3, DC-SIGN; assay: Sugar competition, biotinylated DV binding to DC-SIGN-transfected 293T cells; type: cell-based; settings: flow cytometry
Experimental: In FIG. 16b, complexes of DV (5×10^6 PFU) with receptor.Fc (5 μg) were immunoprecipitated and detected on westerns with mAb to DV envelope (E) protein. […] FIGS. 16d and 16e show sugar competition assays wherein both DC-SIGN (CLEC4L) and DVLR1/CLEC5A increase DV binding to human 293T cells (FIG. 16d), while addition of sugars inhibits biotinylated DV binding to DC-SIGN- (left panel) or DLVR1/CLEC5A- (right panel) transfected 293T cells in a dose-dependent manner as determined by flow cytometry (FIG. 16e). According to FIG. 16e, MFI represents mean fluorescence intensity. Units (U) for monosaccharide (mannose and fucose) and polysaccharide (mannan) are mM and mg/ml, respectively. […] Data are expressed as the mean±s.d. of three independent experiments. Two-tailed, Student's t-tests were performed.
There are two conserved N-linked glycosylation sites at Asn-67 and Asn-153 of E protein (Pokidysheva, E. et al., Cell 124:485-93 (2006)), and the attached glycans (with terminal fucose and mannose) have been implicated in cellular attachment and viral entry (Modis, Y. et al., J. Virol. 79:1223-1231 (2005)). To investigate the participation of glycans in the association of DVLR1/CLEC5A with DV, virions were incubated with fucose, mannose, or mannan; where the last two sugars are the ligands for DC-SIGN (Mitchell et al., J. Biol. Chem. 276: 28939-28945 ([…])).

Dengue virus = assay: ELISA of receptor.Fc interaction with Dengue virus; type: binding; settings: receptor.Fc 1 μg; DV 5×10^6
Experimental: One μg of each receptor.Fc fusion protein was coated onto microtiter plates overnight at 4° C. DV (5×10^6 particles) of strain 16681 (a DEN2 strain) in binding buffer (1% BSA, 2 mM CaCl2, 2 mM MgCl2, 50 mM Tris-HCl pH 7.5, 150 mM NaCl) was then added to the plates and the plates were incubated for 2 hours. After washing non-bound virus, a biotinylated anti-DEN2 envelope protein antibody (Wu et al., J Virol, 2002. 76(8): p. 3596-604) was applied to bind to the virus for 1 hour. Diluted horseradish peroxidase-conjugated streptavidin was then added to the plates, followed by a 1 hour incubation. TMB substrate was then added and the plates were read using an ELISA reader at OD450 nm.
The microtiter plate assay was repeated in the presence of EDTA (10 mM) to chelate Ca^++ cations.
The microtiter plate assay was also repeated for DVLR1/CLEC5A.Fc fusion protein with DV particles (5×10^6) that had been 1) preincubated with 500 U of the glycosidase PNGaseF (New England Biolabs, Inc.) overnight at 37° C.; or 2) treated with dithiothreitol (DTTI) (0.1M); or 3) incubated at 95° C. for 5 minutes; or 4) UV irradiated for 5 minutes. The results are shown in FIG. 8D (asterisks indicate where the binding affinity of DVLR1/CLEC5A.Fc fusion protein is altered by modification of the virus relative to non-treated virus; ** p<0.01, *** p<0.001, Student's t test). […]

JEV = assay: ELISA of DVLR1/CLEC5A.Fc interaction with JEV; type: binding, Japanese encephamyelitis virus; settings: 1 μg; JEV 5×10^6 PFU
Experimental: Like with DV, JEV follows a similar virus infection response pattern, which is believed to be the same or similar in all flaviviruses. […] (1 μg), with JEV and DV (5×10^6 PFU), respectively, were determined by ELISA. DV interacts with human DVLR1/CLEC5A (187 amino acid in length) SEQ ID NO: 72, but not the alternatively spliced form sDVLR1/CLEC5A (aa 43-65 is deleted). SEQ ID NO: 73. […] DAP12 in DV-infected macrophages were precipitated by anti-DAP12 mAb, blotted to nitrocellulose paper after fractionation on SDS-PAGE, followed by incubation with antibodies against phosphotyrosine and DAP12, respectively. JEV-induced DAP12 phosphorylation (m.o.i.=5) is inhibited by pLL3.7/DVLR1/CLEC5A. […] JEV-induced TNF-α secretion is inhibited by […] mAb (right). Data are expressed as the mean±s.d. of three independent experiments.

T4 sequence (Q9UJ71 65-328 limits assumed): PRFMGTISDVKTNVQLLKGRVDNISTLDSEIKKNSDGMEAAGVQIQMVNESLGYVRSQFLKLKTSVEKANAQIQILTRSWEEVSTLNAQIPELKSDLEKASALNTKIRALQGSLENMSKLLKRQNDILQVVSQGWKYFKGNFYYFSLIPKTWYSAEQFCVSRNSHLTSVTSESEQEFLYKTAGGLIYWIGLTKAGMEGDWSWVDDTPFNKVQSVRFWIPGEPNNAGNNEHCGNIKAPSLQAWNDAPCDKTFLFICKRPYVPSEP
T5 sequence (O00206 24-631 limits assumed): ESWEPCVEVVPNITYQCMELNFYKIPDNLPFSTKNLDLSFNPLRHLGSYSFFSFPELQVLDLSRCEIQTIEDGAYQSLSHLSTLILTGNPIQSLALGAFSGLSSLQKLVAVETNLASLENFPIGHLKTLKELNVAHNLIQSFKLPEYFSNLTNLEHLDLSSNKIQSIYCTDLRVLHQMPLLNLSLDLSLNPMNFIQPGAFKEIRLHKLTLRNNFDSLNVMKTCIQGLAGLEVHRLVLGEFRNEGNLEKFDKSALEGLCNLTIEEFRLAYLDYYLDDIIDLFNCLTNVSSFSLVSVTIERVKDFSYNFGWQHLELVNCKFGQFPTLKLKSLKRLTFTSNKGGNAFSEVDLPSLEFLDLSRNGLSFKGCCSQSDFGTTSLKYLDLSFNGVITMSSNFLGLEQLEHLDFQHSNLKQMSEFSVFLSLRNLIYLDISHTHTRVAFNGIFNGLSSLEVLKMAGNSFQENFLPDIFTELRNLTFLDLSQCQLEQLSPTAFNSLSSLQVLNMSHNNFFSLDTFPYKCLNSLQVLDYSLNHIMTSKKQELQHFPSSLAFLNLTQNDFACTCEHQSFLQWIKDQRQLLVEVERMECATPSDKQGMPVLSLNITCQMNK

Row | Molecule | inhibition of interaction between Fc.Langerin and GLPS-F3 (Langerin) [%] | inhibition of binding of Fc.DC-SIGN to GLPS-F3 (DC-SIGN [1]) [%] | inhibition of interaction between GLPS-F3 and MMR.Fc (MMR.Fc) [%] | Percentage of binding of TLR4.Fc to GLPS-F3 relative to binding in absence of sugar competitor (TLR4.Fc) [%] | inhibition of the DC-SIGN-DV interaction (DC-SIGN [2]) | interaction of receptor.Fc with Dengue virus (ELISA) (Dengue virus) | interaction with JEV (ELISA) (JEV)
1 | O=C[C@@H](O)[C@@H](O)[C@H](O)[C@H](O)CO [Man, D-mannose] | 26 | 72 | 87 | 89 ± 2.6 | dose-dependent inhibition | – | –
2 | sDVLR1/CLEC5A: alternatively spliced form of human DVLR1/CLEC5A (aa 43-65 deleted), SEQ ID NO: 73 (protein, Human) MNWHMIISGLIVVVLKVVGMTLFLLYFPQIFNKSNDGFTTTRSYGTVCPKDWEFYQARCFFLSTSESSWNESRDFCKGKGSTLAIVNTPEKLFLQDITDAEKYFIGLIYHREEKRWRWINNSVFNGNVTNQNQNFNCATIGLTKTFDAASCDISYRRICEKNAK | – | – | – | – | – | not | only interacts
